In patent publication US7449463B2, “Morpholinyl containing benzimidazoles as inhibitors of respiratory syncytial virus replication” (Tibotec Pharmaceuticals Ltd., priority 2003, dated 2008):

The molecules below were run on Respiratory Syncytial Virus (assay: microbe, parasite or virus in culture). Conditions: RSV-infected HeLa cells, MTT readout seven days after infection; −log of EC50 in molar units.
Assay type: cell-based
Excerpt: In vitro Screening for Activity against Respiratory Syncytial Virus.
The percent protection against cytopathology caused by viruses (antiviral activity or EC50) achieved by tested compounds and their cytotoxicity (CC50) are both calculated from dose-response curves. The selectivity of the antiviral effect is represented by the selectivity index (SI), calculated by dividing the CC50 (cytotoxic dose for 50% of the cells) by the EC50 (antiviral activity for 50% of the cells).
Automated tetrazolium-based colorimetric assays were used for determination of EC50 and CC50 of test compounds. Flat-bottom, 96-well plastic microtiter trays were filled with 180 μl of Eagle's Basal Medium, supplemented with 5% FCS (0% for FLU) and 20 mM Hepes buffer. Subsequently, stock solutions (7.8× final test concentration) of compounds were added in 45 μl volumes to a series of triplicate wells so as to allow simultaneous evaluation of their effects on virus- and mock-infected cells. Five five-fold dilutions were made directly in the microtiter trays using a robot system. Untreated virus controls, and HeLa cell controls were included in each test. Approximately 100 TCID50 of Respiratory Syncytial Virus was added to two of the three rows in a volume of 50 μl. The same volume of medium was added to the third row to measure the cytotoxicity of the compounds at the same concentrations as those used to measure the antiviral activity. After two hours of incubation, a suspension (4×10^5 cells/ml) of HeLa cells was added to all wells in a volume of 50 μl. The cultures were incubated at 37° C. in a 5% CO2 atmosphere. Seven days after infection the cytotoxicity and the antiviral activity was examined spectrophotometrically. To each well of the microtiter tray, 25 μl of a solution of MTT (3-(4,5-dimethylthiazol-2-yl)-2,5-diphenyltetrazolium bromide) was added. The trays were further incubated at 37° C. for 2 hours, after which the medium was removed from each cup. Solubilization of the formazan crystals was achieved by adding 100 μl 2-propanol. Complete dissolution of the formazan crystals were obtained after the trays have been placed on a plate shaker for 10 min. Finally, the absorbances were read in an eight-channel computer-controlled photometer (Multiskan MCC, Flow Laboratories) at two wavelengths (540 and 690 nm). The absorbance measured at 690 nm was automatically subtracted from the absorbance at 540 nm, so as to eliminate the effects of non-specific absorption.

Question: Which Activity does the source give for `COc1ccc(CCO)c(NCc2ccc3nc(NCCCN4CCOCC4)n(Cc4nc(C)ccc4O)c3c2)c1` [Compound 9] here?
Answer: 9.6

Question: How did the Activity turn out when `Cc1ccc(O)c(Cn2c(NCCCN3CCOCC3)nc3ccc(CN(c4ccccc4)c4cccc(O)c4)cc32)n1` [Compound 109] was run?
Answer: 7.9

Question: Which Activity does the source give for `Cc1ccc(O)c(Cn2c(NCCCN3C[C@@H](C)O[C@@H](C)C3)nc3ccc(CO)cc32)n1` [Compound 175] here?
Answer: 6.2

Question: Which Activity does the source give for `CCc1ccccc1NCc1ccc2nc(NCCCN3CCOCC3)n(Cc3nc(C)ccc3O)c2c1` [Compound 41] here?
Answer: 8.3

Question: With `Cc1ccc(CCC(C)O)c(NCc2ccc3nc(NCCCN4CCOCC4)n(Cc4nc(C)ccc4O)c3c2)c1` (centres unmarked) [Compound 15] as the molecule, how does the Activity read?
Answer: 9.3

Question: How did the Activity turn out when `Cc1ccc(O)c(Cn2c(NCCCN3CCOCC3)nc3ccc(CNc4ccccc4CCO)cc32)n1` [Compound 22] was run?
Answer: 9.1

Question: How did the Activity turn out when `Cc1ccc(O)c(Cn2c(NCCCN3CCOCC3)nc3ccc(CN(CCN4CCOCC4)c4ccccc4CCO)cc32)n1` [Compound 103] was run?
Answer: 8.2

Question: Which Activity does the source give for `Cc1ccc(O)c(Cn2c(NCCCN3CC(C)OC(C)C3)nc3ccc(CO)cc32)n1` (centres unmarked) [Compound 177] here?
Answer: 5.7

Question: With `Cc1ccc(O)c(Cn2c(NCCCN3CCOCC3)nc3ccc(CN(CC(N)=O)c4ccccc4CCO)cc32)n1` [Compound 101] as the molecule, how does the Activity read?
Answer: 8.3

Question: For `Cc1ccc(O)c(Cn2c(NCCCN3CCOCC3)nc3ccc(CNc4ccccc4CCC(N)=O)cc32)n1` [Compound 33], which Activity is on record?
Answer: 8.6

Question: With `Cc1ccc(O)c(Cn2c(NC3CCN(CCN4CCOCC4)CC3)nc3ccc(CO)cc32)n1` [Compound 168] as the molecule, how does the Activity read?
Answer: 6.5

Question: Which Activity does the source give for `Cc1ccc(O)c(Cn2c(NCCCN3CCOCC3)nc3cc(CO)ccc32)n1` [Compound 53] here?
Answer: 5.6

Question: With `Cc1cc(C)cc(NCc2ccc3c(c2)nc(NCCCN2CCOCC2)n3Cc2nc(C)ccc2O)c1` [Compound 51] as the molecule, how does the Activity read?
Answer: 7.2

Question: How did the Activity turn out when `Cc1ccc(CCO)c(NCc2ccc3nc(NCCCN4CCOCC4)n(Cc4nc(C)ccc4O)c3c2)c1` [Compound 7] was run?
Answer: 9.6

Question: How did the Activity turn out when `Cc1ccc(O)c(Cn2c(NCCCN3CCOCC3)nc3ccc(CN(c4ccccc4)c4ccc(O)cc4)cc32)n1` [Compound 106] was run?
Answer: 8.1

Question: For `Cc1ccc(O)c(Cn2c(NCCCN3CCOCC3)nc3ccc(CN(CCO)c4ccccc4CCO)cc32)n1` [Compound 107], which Activity is on record?
Answer: 8.1

Question: For `Cc1ccc(O)c(Cn2c(NCCCN3CCOCC3)nc3ccc(CNc4ccccc4C(N)=O)cc32)n1` [Compound 45], which Activity is on record?
Answer: 7.9

Question: For `C=Cc1ccc(CCO)c(NCc2ccc3nc(NCCCN4CCOCC4)n(Cc4nc(C)ccc4O)c3c2)c1` [Compound 6], which Activity is on record?
Answer: >9.6

Question: For `Cc1cccc(N(CCCO)Cc2ccc3nc(NCCCN4CCOCC4)n(Cc4nc(C)ccc4O)c3c2)c1` [Compound 93], which Activity is on record?
Answer: 8.7

Same assay, conditions: pEC50 (−log of EC50 when expressed in molar units), protection against RSV cytopathology

Question: For `Cc1ccc(NCc2ccc3nc(NCCCN4CCOCC4)n(Cc4nc(C)c(C)nc4C)c3c2)c(CO)c1` [Compound 284], which Activity is on record?
Answer: 7.1

Question: With `Cn1cnc2c(Cn3c(NCCCN4CCOCC4)nc4ccc(CNc5ccccc5C(N)=O)cc43)cccc21` [Compound 288] as the molecule, how does the Activity read?
Answer: 7

Question: For `Cc1nc(C)c(Cn2c(NCCCN3CCOCC3)nc3ccc(CNc4cccc(CCO)c4)cc32)nc1C` [Compound 300], which Activity is on record?
Answer: 6.9

Question: `Cc1cccc(NCc2ccc3nc(NCCCN4CCOCC4)n(Cc4cccc(C)n4)c3c2)c1` [Compound 338] was tested. Which Activity did it give?
Answer: 5.4

Question: Which Activity does the source give for `Cc1cccc(Cn2c(NCCCN3CCOCC3)nc3ccc(CNc4ccccc4CCN4CCOCC4)cc32)n1` [Compound 345] here?
Answer: 5

Question: With `COc1ccc(C)nc1Cn1c(NCCCN2CCOCC2)nc2ccc(CN(CCO)c3cc(C)cc(C)c3)cc21` [Compound 240] as the molecule, how does the Activity read?
Answer: 7.9

Question: `Cc1nc(C)c(Cn2c(NCCCN3CCOCC3)nc3ccc(CNc4ccccc4CCN4CCOCC4)cc32)nc1C` [Compound 299] was tested. Which Activity did it give?
Answer: 6.9

Question: Which Activity does the source give for `Cc1cc(C)cc(NCc2ccc3nc(NCCCN4CCOCC4)n(Cc4cccc(C)n4)c3c2)c1` [Compound 334] here?
Answer: 5.5

Question: For `Cc1nc(C)c(Cn2c(NCCCN3CCOCC3)nc3ccc(CNc4cc(Cl)cc(Cl)c4)cc32)nc1C` [Compound 289], which Activity is on record?
Answer: 7

Question: Which Activity does the source give for `Cc1cccc(NCc2ccc3nc(NCCCN4CCOCC4)n(Cc4nc(C)c(C)nc4C)c3c2)c1` [Compound 283] here?
Answer: 7.1
